Experimental data published in patent US20240033234A1, “THERAPEUTIC COMPOUNDS, FORMULATIONS, AND USE THEREOF” (Tvardi Therapeutics, Inc., priority 2022, published 2024).
Values joined by “and” are separate entries in the source; they are usually repeats but may differ in a detail not shown here. Identical values can stand only once.

Assay: Accelerated and long term stability study of TTI-101 (Batch A, Batch B): HPLC assay, purity, impurities and water content after storage at 5° C., 25° C./60% RH, 30° C./65% RH or 40° C./75% RH
Type: physicochemical
Conditions: for Impurities RRT 0.99: RRT of compound of formula (IV); for Impurities RRT 1.06: RRT of Compound 4
Procedure: Exemplary HPLC conditions: diluent was 0.1% trifluoroacetic acid (TFA) in acetonitrile, Mobile Phase A was 0.05% TFA in water, and Mobile Phase B was 0.05% TFA in acetonitrile, column (Agilent, Eclipse XDB-C18, 3.0×100 mm, particle size 1.8 μm), flow (0.425 mL/min), and detector (280 nm diode array).
Batch A was prepared analogously using Method 3 as described in Example 1. Batch B was prepared according to Method 5 as described in Example 1.
Samples of TTI-101 were stored at 5° C., 25° C./60% RH, 30° C./65% RH, or 40° C./75% RH. TTI-101 was stored in an LDPE bag enclosed with a Nylon cable tie and then transferred to another LDPE bag and enclosed with a Nylon cable tie. The enclosure was put into an HDPE bottle and closed with a polyethylene-lined polypropylene cap. The samples were stored under the above-identified conditions.
The samples were analyzed using HPLC with the exemplary conditions identified above. Relative retention time (RRT) for Compound 5 was about 0.83, Compound 4 was about 1.05-1.06, Compound 6 was about 1.15-1.17, and compound of formula (IV) was about 0.99.
• NA not applicable • NQ ≥0.02% and <0.05% • Avg average • Cmpd compound • — no peak • M month • RRT relative retention time

[1] = 5° C., 0 M, P1/P2, listed as Batch A
[2] = 5° C., 2 M, P1/P2, listed as Batch A
[3] = 5° C., 3 M, P1/P2, listed as Batch A
[4] = 5° C., 12 M, P1/P2, listed as Batch A
[5] = 25° C./60% RH, 0 M, P1/P2, listed as Batch A
[6] = 25° C./60% RH, 2 M, P1/P2, listed as Batch A

## COc1ccc(S(=O)(=O)Nc2cc(-c3c(O)ccc4ccccc34)c(O)c3ccccc23)cc1 [TTI-101]
5° C., 0 M, Avg
  Assay (%): 99.8%
  Impurities RRT 1.06 (Cmpd 4): NQ (≥0.02% and <0.05%)
  Impurities RRT 1.17 (Cmpd 6): 0.13 area %
  Impurities RRT 1.32: NQ (≥0.02% and <0.05%)
  Impurities Total: 0.1 area %
  Purity (%): 99.8%
  Water Content (%): <0.04%
  Impurities RRT 0.99: NQ (≥0.02% and <0.05%)
5° C., 0 M, P1/P2
  Impurities RRT 1.32: NQ (≥0.02% and <0.05%)
  Impurities Total: 0.1 area %
  Purity (%): 99.8%
  Water Content (%): <0.04%
[1]
  Assay (%): 99.9% and 99.7%
  Impurities RRT 1.17 (Cmpd 6): 0.13 area % and 0.12 area %
5° C., 2 M, Avg
  Assay (%): 100.2%
  Impurities RRT 1.16 (Cmpd 6): 0.08 area %
  Impurities Total: 0.1 area %
  Purity (%): 99.9%
  Water Content (%): <0.04%
  Impurities RRT 0.99: NQ (≥0.02% and <0.05%)
5° C., 2 M, P1/P2
  Water Content (%): <0.04%
[2]
  Assay (%): 99.7% and 100.7%
  Purity (%): 99.9% and 100.0%
5° C., 3 M, Avg
  Assay (%): 99.9%
  Impurities RRT 1.06 (Cmpd 4): 0.07 area %
  Impurities RRT 1.16 (Cmpd 6): 0.22 area %
  Impurities Total: 0.3 area %
  Purity (%): 99.7%
  Water Content (%): <0.04%
5° C., 3 M, P1/P2
  Impurities RRT 1.16 (Cmpd 6): 0.22 area %
  Impurities Total: 0.3 area %
  Purity (%): 99.7%
  Water Content (%): <0.04%
[3]
  Assay (%): 100.2% and 99.5%
  Impurities RRT 1.06 (Cmpd 4): 0.06 area % and 0.07 area %
5° C., 6 M, Avg
  Assay (%): 99.4%
  Impurities RRT 1.15 (Cmpd 6): 0.13 area %
  Impurities Total: 0.1 area %
  Purity (%): 99.9%
  Water Content (%): <0.04%
5° C., 6 M, P1/P2
  Impurities RRT 1.15 (Cmpd 6): 0.13 area %
  Impurities Total: 0.1 area %
  Purity (%): 99.9%
  Water Content (%): <0.04%
5° C., 6 M, P1/P2, listed as Batch A
  Assay (%): 100.6% and 98.3%
5° C., 9 M, Avg
  Assay (%): 99.6%
  Impurities RRT 1.16 (Cmpd 6): 0.12 area %
  Impurities Total: 0.1 area %
  Purity (%): 99.9%
  Water Content (%): <0.04%
5° C., 9 M, P1/P2
  Assay (%): 99.6%
  Impurities Total: 0.1 area %
  Purity (%): 99.9%
  Water Content (%): <0.04%
5° C., 9 M, P1/P2, listed as Batch A
  Impurities RRT 1.16 (Cmpd 6): 0.12 area % and 0.11 area %
5° C., 12 M, Avg
  Assay (%): 99.2%
  Impurities RRT 1.06 (Cmpd 4): NQ (≥0.02% and <0.05%)
  Impurities RRT 1.16 (Cmpd 6): 0.39 area %
  Impurities Total: 0.4 area %
  Purity (%): 99.6%
  Water Content (%): 0.04%
5° C., 12 M, P1/P2
  Impurities RRT 1.06 (Cmpd 4): NQ (≥0.02% and <0.05%)
  Impurities RRT 1.16 (Cmpd 6): 0.39 area %
  Impurities Total: 0.4 area %
  Purity (%): 99.6%
[4]
  Assay (%): 99.1% and 99.2%
  Water Content (%): <0.04% and 0.04%
5° C., 18 M, Avg
  Assay (%): 98.5%
  Impurities RRT 1.15 (Cmpd 6): 0.10 area %
  Impurities Total: 0.1 area %
  Purity (%): 99.9%
  Water Content (%): <0.04%
5° C., 18 M, P1/P2
  Impurities RRT 1.15 (Cmpd 6): 0.10 area %
  Impurities Total: 0.1 area %
  Purity (%): 99.9%
  Water Content (%): <0.04%
  Impurities RRT 1.06: NQ (≥0.02% and <0.05%)
5° C., 18 M, P1/P2, listed as Batch A
  Assay (%): 97.9% and 99.2%
5° C., 24 M, Avg
  Assay (%): 99.7%
  Impurities RRT 1.16 (Cmpd 6): 0.11 area %
  Impurities Total: 0.1 area %
  Purity (%): 99.9%
  Water Content (%): <0.04%
5° C., 24 M, P1/P2
  Impurities RRT 1.16 (Cmpd 6): 0.11 area %
  Impurities Total: 0.1 area %
  Purity (%): 99.9%
  Water Content (%): <0.04%
  Impurities RRT 1.06: NQ (≥0.02% and <0.05%)
5° C., 24 M, P1/P2, listed as Batch A
  Assay (%): 100.2% and 99.3%
25° C./60% RH, 0 M, Avg
  Assay (%): 99.8%
  Impurities RRT 1.06 (Cmpd 4): NQ (≥0.02% and <0.05%)
  Impurities RRT 1.17 (Cmpd 6): 0.13 area %
  Impurities RRT 1.32: NQ (≥0.02% and <0.05%)
  Impurities Total: 0.1 area %
  Purity (%): 99.8%
  Water Content (%): <0.04%
  Impurities RRT 0.99: NQ (≥0.02% and <0.05%)
25° C./60% RH, 0 M, P1/P2
  Impurities RRT 1.32: NQ (≥0.02% and <0.05%)
  Impurities Total: 0.1 area %
  Purity (%): 99.8%
  Water Content (%): <0.04%
[5]
  Assay (%): 99.9% and 99.7%
  Impurities RRT 1.17 (Cmpd 6): 0.13 area % and 0.12 area %
25° C./60% RH, 2 M, Avg
  Assay (%): 99.1%
  Impurities RRT 0.71: 0.08 area %
  Impurities RRT 0.92: NQ (≥0.02% and <0.05%)
  Impurities RRT 1.16 (Cmpd 6): 0.05 area %
  Impurities RRT 1.29: NQ (≥0.02% and <0.05%)
  Impurities Total: 0.1 area %
  Purity (%): 99.9%
  Water Content (%): <0.04%
25° C./60% RH, 2 M, P1/P2
  Water Content (%): <0.04%
[6]
  Assay (%): 98.9% and 99.3%
  Impurities Total: 0.05 area % and 0.1 area %
  Purity (%): 99.9% and 99.8%
25° C./60% RH, 3 M, Avg
  Assay (%): 99.5%
  Impurities RRT 1.06 (Cmpd 4): 0.07 area %
  Impurities RRT 1.16 (Cmpd 6): 0.22 area %
  Impurities Total: 0.3 area %
  Purity (%): 99.7%
  Water Content (%): <0.04%
25° C./60% RH, 3 M, P1/P2
  Impurities RRT 1.06 (Cmpd 4): 0.07 area %
  Impurities RRT 1.16 (Cmpd 6): 0.22 area %
  Impurities Total: 0.3 area %
